According to patent US11014955B2, “Cyclic peroxides as prodrugs for selective delivery of agents” (THE REGENTS OF THE UNIVERSITY OF CALIFORNIA, priority 2014, dated 2021):

Test system: P. falc FCB
Experiment: Biological activity EC50, P. falc FCB
Format: cell-based
Conditions: Plasmodium falciparum; Target (Cell Line): P. falc FCB

Row | Structure (SMILES) | EC50 [nM]
1 | CN(C)c1cccc2c(S(=O)(=O)OC34CC5CC(C3)C3(OOC6(CCCCC6)O3)C(C5)C4)cccc12 (centres unmarked) [Example 18, dispiro[adamantane-2,2′-[1,3,5]trioxolane-4′,1″-cyclohexane]-7-yl 5-(dimethylamino)naphthalene-1-sulfonate] | 17.9
2 | CN(C)c1cccc2c(S(=O)(=O)NCCCNC3CCC4(CC3)OOC3(O4)C4CC5CC(C4)CC3C5)cccc12 (centres unmarked) [Example 19, 5-(dimethylamino)-N-[3-({dispiro[adamantane-2,2′-[1,3,5]trioxolane-4′,1″-cyclohexane]-4″-yl}amino)propyl]naphthalene-1-sulfonamide] | 14.6
